Assay results: patent US10517867B2, “Posaconazole derivative, pharmaceutical composition and use thereof” (priority 2016, dated 2019)
Where two headings read alike, the source gives them in different places.

What was measured:
[1] = Determination of solubility in deionized water (HPLC, external standard); conditions: 25 °C, water, thermodynamic from solid
[2] = Pharmacokinetics after single intravenous administration to rats; assay type: in vivo, SD rats; conditions: posaconazole in saline solution as a control, tail vein
Protocol: Administration amount: 2.5 mg/kg (calculated as posaconazole)
Administration volume: 2.5 ml/kg
Drug concentration: 1 mg/mL
Administration vehicle: normal saline
Administration route: tail vein injection
Experimental animals: SD rats, SPF grade, weighing 180-220 g, equal amount of male and female. Rats were randomly divided into groups of 6 with 3 males and 3 females.
Experimental protocol: blood samples were collected at different time points after tail vein administration and plasma posaconazole concentrations were measured.

[3] = system: Candida albicans ATCC10231; assay: Systemic fungal infection in mice, intragastric administration; assay type: in vivo, ICR mice; conditions: Candida albicans, ATCC10231, po
[4] = In vitro metabolic stability in rat intestine S9; assay type: in vitro ADME; conditions: rat, pH 7.4; 37° C., 10 μM compound, 1 mg/mL S9, NADPH regeneration system; read-out: Rat intestine S9 T1/2
Method in brief: (§1)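 Human or rat plasma, preincubated 5 min at 37 °C, or intestinal S9 at 37 °C, spiked from 1 mM stock; triplicates sampled at 1, 2, 5, 15 and 30 min into cold internal standard. HPLC quantitation; half-life by non-compartmental analysis.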

[5] = In vitro metabolic stability in human plasma; assay type: in vitro ADME; conditions: human, plasma, 37° C., 10 μM compound, read-out: Human plasma T1/2
Method in brief: as §1

[6] = In vitro metabolic stability in rat plasma; assay type: in vitro ADME; conditions: rat, plasma, 37° C., 10 μM compound, read-out: Rat plasma T1/2
Method in brief: as §1

[7] = physchem; conditions: 25 °C, water, thermodynamic from solid
[8] = In vitro metabolic stability in human intestine S9; assay type: in vitro ADME; conditions: human; 37° C., 10 μM compound, 1 mg/mL S9, NADPH regeneration system; read-out: Human intestine S9 T1/2
Method in brief: as §1

solubility at 30 min [1] [mg/mL] | plasma posaconazole detection [2] | SMILES | responders at 20 mg/kg ([3]; 24 h, read-out: survival rate of mice, day 1, 20 mg/kg intragastric once daily for 5 days, day 1) [%] | responders at 20 mg/kg ([3]; 48 h, read-out: survival rate of mice, day 2, 20 mg/kg intragastric once daily for 5 days, day 2) [%] | responders at 20 mg/kg ([3]; 72 h, read-out: survival rate of mice, day 3, 20 mg/kg intragastric once daily for 5 days, day 3) [%] | responders at 20 mg/kg ([3]; 96 h, read-out: survival rate of mice, day 4, 20 mg/kg intragastric once daily for 5 days, day 4) [%] | responders at 20 mg/kg ([3]; 120 h, read-out: survival rate of mice, day 5, 20 mg/kg intragastric once daily for 5 days, day 5) [%] | responders at 20 mg/kg ([3]; 144 h, read-out: survival rate of mice, day 6, 20 mg/kg intragastric once daily for 5 days, day 6) [%] | responders at 20 mg/kg ([3]; 168 h, read-out: survival rate of mice, day 7, 20 mg/kg intragastric once daily for 5 days, day 7) [%] | half-life at 10 µM [4] [min] | half-life at 10 µM [5] [min] | half-life at 10 µM [6] [min] | Solubility [7] [mg/mL] | half-life at 10 µM [8] [min]
< 1 | not detected | CC[C@@H]([C@H](C)O)n1ncn(-c2ccc(N3CCN(c4ccc(OC[C@@H]5CO[C@@](Cn6cncn6)(c6ccc(F)cc6F)C5)cc4)CC3)cc2)c1=O [Posaconazole, posaconazole] | – | – | – | – | – | – | – | – | – | – | – | –
– | – | CC[C@@H](C(C)OC(=O)OC(C)OC(=O)CCOP(=O)([O-])[O-])n1ncn(-c2ccc(N3CCN(c4ccc(OC[C@@H]5CO[C@@](Cn6cncn6)(c6ccc(F)cc6F)C5)cc4)CC3)cc2)c1=O.[Na+].[Na+] (some centres unmarked) [ST0066] | 80 | 80 | 70 | 70 | 70 | 60 | 60 | 36.6 ± 8.66 | 11.3 ± 2.27 | 12.6 ± 4.54 | > 50 | 40.4 ± 5.21
